We go through one compound from patent publication US20110105380A1, “Protection of Nano-Scale Particles from Immune Cell Uptake” (THE TRUSTEES OF THE UNIVERSITY OF PENNSYLVANIA, priority 2009, published 2011).

The subject of this test is THP-1 macrophages. Briefly: Phagocytosis of IgG-opsonized streptavidin beads with or without hCD47 by THP-1 macrophages. The class given is cell-based, human. As for the experimental part: The extracellular immunoglobulin-like domains of human CD47 (hCD47) was recombinantly expressed with a spacer domain (Brown et al., 1994, Protein Eng. 7:515-21; Brown et al., 1998, J. Exp. Med. 188:2083-90) plus a C-terminal biotinylation site. […] The beads were opsonized by pretreatment with anti-streptavidin to again induce FcR-mediated phagocytosis (for 45 minutes at 37° C.), and non-engulfed beads were detected with a flourescein anti-Fc against the IgG-opsonin. The number of adherent IgG-opsonized beads per phagocyte was independent of hCD47 (not shown).
For phagocytosis assays, macrophages were plated in 4 cm^2, or 2 cm^2 Lab-Tek II Chambered Coverglass (Nalge Nunc International, Naperville, Ill.) at 1.5×10^5/cm^2. Streptavidin polystyrene beads of different radius: 3.5 μm, 1.1 μm, 160 nm (Spherotech) and 100 nm (Ademtech) were added to macrophages at a ratio of 2:1, 20:1, 277:1, and 2206:1 respectively and incubate at 37° C. for 45 min. […] Non-phagocytosed beads were washed with PBS. Cells were fixed with 5% formaldehyde (Fisher Scientific) for 5 minutes, followed by immediate replacement with PBS. For differentiation of non-internalized beads, beads were labeled with a primary antibody, rabbit anti-streptavidin (Sigma) at 1:1000 in PBS for 20 min at 25° C. A second antibody, anti-rabbit R-PE (Sigma) was added at 1:1000 in PBS to the cells and incubated for an additional 20 minutes at 25° C. Cells were then washed with PBS/0.4% BSA and then quantified by light and fluorescent microscopy. At least 200 cells were scored per well and experiments were repeated at least three times.
For stimulated phagocytosis assays, beads with or without CD47 were incubated with rabbit anti-streptavidin as the IgG opsonin. Beads were opsonized at a concentration 1:1000 for 30 min at 25° C. Opsonized beads were washed 2× and resuspended in 50 μl of PBS/0.4% BSA. Phagocytes were washed with PBS and uningested beads were labeled as described above.
For cytoskeletal involvement at the phagocytic synapse, streptavidin beads opsonized with rabbit anti-streptavidin FITC. Opsonized beads of different sizes were added to THP-1 cells, PMA treated and immediately placed at 4° C. for 10 min to synchronize phagocytosis. […] For studies involving blebbistatin (EMD Biosciences), macrophages were treated for 10 min at 4° C. prior to temperature increase to 37° C. or for 45 min and 37° C. Macrophages treated with DMSO were used to verify no solvent effects.
Beads were opsonized at saturating densities of IgG, and over a 20-fold range of CD47 densities, the number of internalized beads per THP-1 was measured. […] The normal level of CD47 density found on human RBC (Subramanian et al., 2006, Blood 107(6):2548-2556) was indicated by the vertical bars and humans with certain Rhnull phenotypes with reduced levels of CD47 (Mouro-Chanteloup et al., 2003, Blood 101 (1):338-344; Arndt et al., 2004, Br. J. Haematol. 125(3):412-4) was indicated by the vertical bars. The minimum number of CD47 inhibition appears to be consistent across a 30-fold particle size range as depicted by the vertical bars.

Consider `Cc1ccc2c(c1)C(=O)C1(O)CCN(c3ccccc3)C1=N2` (stereo not drawn) [blebbistatin], for which, for the setting “THP-1 treated with 50 μM blebbistatin vs DMSO”, the “uptake of 100 nm IgG-opsonized particles” value is “decrease in uptake”. Also, the “phagocytosis of CD47-null beads” value (blebbistatin 50 μM, 10 min pretreatment of THP-1) was “inhibited phagocytosis of CD47-null beads to a level similar as hCD47 beads”. The “uptake of 1.1 μm IgG-opsonized particles” value (blebbistatin treatment, FIG. 16D) is listed as “comparable results”.
